In PubChem BioAssay AID246 (DTP/NCI, 2004):
Where “and” joins values, the source holds several entries; their conditions need not be identical. Identical values can stand only once. Inconclusive results and toxic doses are left out.

Test system: BDF1 mice, P1081 chloroleukemia ip, survival T/C
Assay: NCI In Vivo Anticancer Drug Screen. Data for tumor model P1081 Chloroleukemia (intraperitoneal) in B6D2F1 (BDF1) mice
Conditions: endpoint: mean survival time, higher = longer survival
Procedure: The antitumor activity of compounds was measured in mice bearing transplantable tumors. Survival or tumor size were measured and the results are expressed as the measurement made in the treated group (T) divided by the measurement made in the vehicle treated control group (C). The tumor model used in this assay is P1081 Chloroleukemia (intraperitoneal) in B6D2F1 (BDF1) mice

[1] = dose: 16.0 mg/kg/injection, schedule: Q01DX010 (ip), vehicle: saline
[2] = dose: 32.0 mg/kg/injection, schedule: Q01DX010 (ip), vehicle: saline
[3] = dose: 64.0 mg/kg/injection, schedule: Q01DX010 (ip), vehicle: saline
[4] = dose: 25.0 mg/kg/injection, schedule: Q01DX010 (ip), vehicle: saline
[5] = dose: 6.25 mg/kg/injection, schedule: Q01DX Z (ip), vehicle: carboxymethylcellulose (CMC)
[6] = dose: 15.0 mg/kg/injection, schedule: Q01DX010 (ip), vehicle: saline
[7] = dose: 30.0 mg/kg/injection, schedule: Q01DX010 (ip), vehicle: saline
[8] = dose: 60.0 mg/kg/injection, schedule: Q01DX010 (ip), vehicle: saline
[9] = dose: 62.5 mg/kg/injection, schedule: Q01DX Z (ip), vehicle: carboxymethylcellulose (CMC)
[10] = dose: 125.0 mg/kg/injection, schedule: Q01DX Z (ip), vehicle: carboxymethylcellulose (CMC)
[11] = dose: 250.0 mg/kg/injection, schedule: Q01DX Z (ip), vehicle: carboxymethylcellulose (CMC)
[12] = dose: 500.0 mg/kg/injection, schedule: Q01DX Z (ip), vehicle: carboxymethylcellulose (CMC)
[13] = dose: 2.5 mg/kg/injection, schedule: Q01DX Z (ip), vehicle: carboxymethylcellulose (CMC)
[14] = dose: 4.0 mg/kg/injection, schedule: Q01DX010 (ip), vehicle: saline
[15] = dose: 8.0 mg/kg/injection, schedule: Q01DX010 (ip), vehicle: saline
[16] = dose: 16.0 mg/kg/injection, schedule: Q01DX Z (ip), vehicle: saline
[17] = dose: 7.5 mg/kg/injection, schedule: Q01DX010 (ip), vehicle: saline
[18] = dose: 50.0 mg/kg/injection, schedule: Q01DX010 (ip), vehicle: saline
[19] = dose: 100.0 mg/kg/injection, schedule: Q01DX010 (ip), vehicle: saline
[20] = dose: 200.0 mg/kg/injection, schedule: Q01DX010 (ip), vehicle: saline

For `O=C(Nc1ccc(C2=NCCN2)cc1)c1cccc(C(=O)Nc2ccc(C3=NCCN3)cc2)c1`, the T/C (dose: 2.35 mg/kg/injection, schedule: Q01DX Z (ip), vehicle: water) was 106 % of control, the T/C (dose: 4.7 mg/kg/injection, schedule: Q01DX Z (ip), vehicle: water) was 96 % of control and the T/C (dose: 9.4 mg/kg/injection, schedule: Q01DX Z (ip), vehicle: carboxymethylcellulose (CMC)) was 152 % of control. The T/C [1] was 300 % of control and 333 % of control, the T/C (dose: 18.8 mg/kg/injection, schedule: Q01DX Z (ip), vehicle: carboxymethylcellulose (CMC)) was 175 % of control and the T/C [2] was 300 % of control and 333 % of control. For the same molecule, the T/C (dose: 37.5 mg/kg/injection, schedule: Q01DX Z (ip), vehicle: carboxymethylcellulose (CMC)) was 206 % of control, the T/C [3] was 294 % of control and 300 % of control and the T/C (dose: 75.0 mg/kg/injection, schedule: Q01DX Z (ip), vehicle: carboxymethylcellulose (CMC)) was 209 % of control. For the same molecule, the T/C (dose: 128.0 mg/kg/injection, schedule: Q01DX010 (ip), vehicle: saline) was 200 % of control and the T/C (dose: 150.0 mg/kg/injection, schedule: Q01DX Z (ip), vehicle: water) was 100 % of control.
For `CCCNc1ncnc2[nH]ncc12`, the T/C (dose: 3.13 mg/kg/injection, schedule: Q01DX010 (ip), vehicle: saline) was 100 % of control, the T/C (dose: 5.0 mg/kg/injection, schedule: Q01DX Z (ip), vehicle: water) was 90 % of control and the T/C (dose: 6.25 mg/kg/injection, schedule: Q01DX010 (ip), vehicle: saline) was 100 % of control. For the same molecule, the T/C (dose: 10.0 mg/kg/injection, schedule: Q01DX Z (ip), vehicle: water) was 93 % of control, the T/C (dose: 20.0 mg/kg/injection, schedule: Q01DX Z (ip), vehicle: water) was 102 % of control and the T/C [4] was 90 % of control.
For `N#CCSc1ncnc2nc[nH]c12`, the T/C [5] was 119 % of control, the T/C [6] was 110 % of control and the T/C [7] was 105 % of control and 95 % of control. The T/C (dose: 50.0 mg/kg/injection, schedule: Q01DX Z (ip), vehicle: carboxymethylcellulose (CMC)) was 101 % of control and the T/C [8] was 110 % of control.
With `O=CN(O)CC(=O)O` the T/C [9] was 99 % of control, the T/C [10] was 109 % of control and the T/C [11] was 110 % of control. The T/C [12] was 101 % of control.
For `O=C(C[N+]12CN3CN(CN(C3)C1)C2)c1ccc(Cl)cc1`, the T/C (dose: 37.5 mg/kg/injection, schedule: Q01DX010 (ip), vehicle: saline) was 113 % of control and 98 % of control, the T/C (dose: 75.0 mg/kg/injection, schedule: Q01DX010 (ip), vehicle: saline) was 107 % of control and 112 % of control and the T/C (dose: 150.0 mg/kg/injection, schedule: Q01DX010 (ip), vehicle: saline) was 112 % of control and 118 % of control. The T/C (dose: 300.0 mg/kg/injection, schedule: Q01DX010 (ip), vehicle: saline) was 110 % of control and 114 % of control.
With `CC(CCC(C)OS(C)(=O)=O)OS(C)(=O)=O` (configuration not stated) the T/C (dose: 1.25 mg/kg/injection, schedule: Q01DX Z (ip), vehicle: carboxymethylcellulose (CMC)) was 95 % of control, the T/C [13] was 111 % of control and the T/C [14] was 100 % of control. For the same molecule, the T/C [15] was 105 % of control, the T/C [1] was 115 % of control and 105 % of control and the T/C [2] was 116 % of control. The T/C [3] was 88 % of control.
In the case of `CN(C)CC(=O)c1ccc(O)c(O)c1`, the T/C [16] is reported as 114 % of control, the T/C (dose: 31.0 mg/kg/injection, schedule: Q01DX Z (ip), vehicle: saline) is reported as 112 % of control and the T/C (dose: 62.0 mg/kg/injection, schedule: Q01DX Z (ip), vehicle: saline) is reported as 118 % of control. For the same molecule, the T/C (dose: 125.0 mg/kg/injection, schedule: Q01DX Z (ip), vehicle: saline) was 115 % of control.
`O=C(Nc1ccc(NC2=NCCN2)cc1)c1ccc(C(=O)Nc2ccc(NC3=NCCN3)cc2)cc1` was tested, and the T/C (dose: 2.0 mg/kg/injection, schedule: Q01DX010 (ip), vehicle: saline) was 161 % of control, the T/C (dose: 2.0 mg/kg/injection, schedule: Q01DX Z (ip), vehicle: saline) was 96 % of control and the T/C [14] was 300 % of control and 333 % of control. The T/C [15] was 300 % of control and 333 % of control, the T/C (dose: 8.0 mg/kg/injection, schedule: Q01DX Z (ip), vehicle: saline) was 153 % of control and 171 % of control and the T/C [16] was 190 % of control. The T/C (dose: 32.0 mg/kg/injection, schedule: Q01DX Z (ip), vehicle: saline) was 96 % of control.
`N[C@@H](Cc1ccc(N(CCCl)CCCl)cc1)C(=O)O` was tested, and the T/C (dose: 0.31 mg/kg/injection, schedule: Q01DX Z (ip), vehicle: saline) was 159 % of control, the T/C (dose: 0.63 mg/kg/injection, schedule: Q01DX Z (ip), vehicle: saline) was 206 % of control and the T/C (dose: 1.25 mg/kg/injection, schedule: Q01DX Z (ip), vehicle: saline) was 193 % of control. The T/C (dose: 2.5 mg/kg/injection, schedule: Q01DX Z (ip), vehicle: saline) was 229 % of control, the T/C (dose: 5.0 mg/kg/injection, schedule: Q01DX Z (ip), vehicle: saline) was 217 % of control and the T/C (dose: 10.0 mg/kg/injection, schedule: Q01DX Z (ip), vehicle: saline) was 107 % of control.
In the case of `Clc1ncnc2nc[nH]c12`, the T/C [17] is reported as 110 % of control and 90 % of control, the T/C [6] is reported as 90 % of control and 100 % of control and the T/C [7] is reported as 110 % of control and 95 % of control. The T/C (dose: 31.25 mg/kg/injection, schedule: Q01DX Z (ip), vehicle: carboxymethylcellulose (CMC)) was 98 % of control, the T/C [8] was 110 % of control and 104 % of control and the T/C [9] was 107 % of control and 105 % of control. The T/C [10] was 114 % of control and 121 % of control and the T/C [11] was 86 % of control and 94 % of control.
`OCC1OC(n2cnc3c(Cl)ncnc32)C(O)C1O` (configuration not stated) was tested, and the T/C [13] was 103 % of control, the T/C (dose: 62.5 mg/kg/injection, schedule: Q01DX010 (ip), vehicle: saline) was 95 % of control and the T/C [9] was 95 % of control. The T/C (dose: 125.0 mg/kg/injection, schedule: Q01DX010 (ip), vehicle: saline) was 90 % of control, the T/C [10] was 91 % of control and the T/C (dose: 250.0 mg/kg/injection, schedule: Q01DX010 (ip), vehicle: saline) was 100 % of control. The T/C [11] was 118 % of control and 95 % of control, the T/C (dose: 500.0 mg/kg/injection, schedule: Q01DX010 (ip), vehicle: saline) was 100 % of control and the T/C [12] was 98 % of control and 104 % of control.
In the case of `C[C@@H]1C[C@@H]([C@H](O)CC2CC(=O)NC(=O)C2)C(=O)[C@@H](C)C1`, the T/C (dose: 0.39 mg/kg/injection, schedule: Q01DX Z (ip), vehicle: water) is reported as 89 % of control, the T/C (dose: 3.12 mg/kg/injection, schedule: Q01DX Z (ip), vehicle: water) is reported as 102 % of control and the T/C (dose: 5.0 mg/kg/injection, schedule: Q01DX010 (ip), vehicle: saline) is reported as 86 % of control and 100 % of control. For the same molecule, the T/C (dose: 10.0 mg/kg/injection, schedule: Q01DX010 (ip), vehicle: saline) was 110 % of control and 100 % of control, the T/C (dose: 20.0 mg/kg/injection, schedule: Q01DX010 (ip), vehicle: saline) was 115 % of control and 100 % of control and the T/C (dose: 25.0 mg/kg/injection, schedule: Q01DX Z (ip), vehicle: water) was 93 % of control. For the same molecule, the T/C (dose: 40.0 mg/kg/injection, schedule: Q01DX010 (ip), vehicle: saline) was 90 % of control.
With `CN(C)/N=N/c1nc[nH]c1C(N)=O` the T/C [4] was 120 % of control, the T/C [18] was 120 % of control and the T/C [19] was 160 % of control and 177 % of control. For the same molecule, the T/C [20] was 122 % of control.
For `CN(C)[C@@H]1C(=O)C(C(N)=O)=C(O)[C@@]2(O)C(=O)C3=C(O)c4c(O)cccc4C[C@H]3C[C@@H]12`, the T/C [17] was 100 % of control, the T/C [6] was 90 % of control and 100 % of control and the T/C [7] was 100 % of control and 105 % of control. The T/C [8] was 111 % of control.
For `CSc1ncnc2nc[nH]c12`, the T/C [5] was 100 % of control, the T/C (dose: 12.5 mg/kg/injection, schedule: Q01DX Z (ip), vehicle: carboxymethylcellulose (CMC)) was 100 % of control and the T/C (dose: 25.0 mg/kg/injection, schedule: Q01DX Z (ip), vehicle: carboxymethylcellulose (CMC)) was 93 % of control. The T/C [19] was 115 % of control, the T/C [20] was 120 % of control and the T/C (dose: 200.0 mg/kg/injection, schedule: Q01DX Z (ip), vehicle: carboxymethylcellulose (CMC)) was 114 % of control.
With `CS(=O)(=O)OCC(O)C(O)C(O)C(O)COS(C)(=O)=O` (configuration not stated) the T/C [4] was 110 % of control, the T/C [18] was 110 % of control and 100 % of control and the T/C [19] was 110 % of control and 105 % of control. The T/C [20] was 111 % of control and 120 % of control and the T/C (dose: 400.0 mg/kg/injection, schedule: Q01DX010 (ip), vehicle: saline) was 111 % of control.
